As usually defined, the IC50 is the concentration that gives 50% inhibition. High values mean weaker potency, low ones greater potency.

We go through five compounds from US4999358A, “(1,2,3,4-tetrahydro-9-acridinimino)cyclohexane carboxylic acid and related compounds” (Hoechst-Roussel Pharmaceuticals Inc., priority 1989, dated 1991).

In assay [1] the test system is Scopolamine Induced Memory Deficit. In words: Scopolamine-induced Dark Avoidance Assay. The following applies: s.c., mice, 24 h.
Description: In this assay mice are tested for their ability to remember an unpleasant stimulus for a period of 24 hours. A mouse is placed in a chamber that contains a dark compartment; a strong incandescent light drives it to the dark compartment, where an electric shock is administered through metal plates on the floor. The animal is removed from the testing apparatus and tested again, 24 hours later, for the ability to remember the electric shock.
If scopolamine, an anticholinergic that is known to cause memory impariment, is administered before an animal's initial exposure to the test chamber, the animal re-enters the dark compartment shortly after being placed in the test chamber 24 hours later.
The target of assay [2] is acetylcholinesterase (Homo sapiens, UniProt P22303). Description: Cholinesterase inhibition assay (photometric method of Ellman et al.). The assay is classed as biochemical. (DTNB colorimetry detects thiols as they appear.)
Chain of acetylcholinesterase (P22303 32-614): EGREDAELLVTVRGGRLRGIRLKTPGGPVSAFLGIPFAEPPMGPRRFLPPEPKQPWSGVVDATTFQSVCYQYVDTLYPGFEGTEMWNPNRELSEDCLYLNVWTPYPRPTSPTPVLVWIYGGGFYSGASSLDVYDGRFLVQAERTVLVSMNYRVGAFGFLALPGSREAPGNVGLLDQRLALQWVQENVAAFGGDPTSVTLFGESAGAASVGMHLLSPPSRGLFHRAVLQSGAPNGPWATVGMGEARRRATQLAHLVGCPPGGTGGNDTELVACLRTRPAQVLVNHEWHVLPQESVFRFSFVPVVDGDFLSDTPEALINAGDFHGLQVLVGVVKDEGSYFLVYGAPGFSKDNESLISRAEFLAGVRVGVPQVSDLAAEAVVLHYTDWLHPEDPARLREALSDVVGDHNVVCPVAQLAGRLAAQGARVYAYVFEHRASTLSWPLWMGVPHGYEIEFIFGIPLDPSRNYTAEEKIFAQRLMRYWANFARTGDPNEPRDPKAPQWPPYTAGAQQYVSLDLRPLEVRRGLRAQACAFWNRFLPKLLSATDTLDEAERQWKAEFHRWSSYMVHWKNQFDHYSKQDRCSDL

Take `CC1(C(=O)O)CCCCC1=Nc1c2c(nc3ccccc13)CCCC2` (stereo not drawn) [1-Methyl-2-(1,2,3,4-tetrahydroacridinimino)cyclohexane carboxylic acid]: the “% of Animals with Scopolamine Induced Memory Deficit Reversal” value (“% of Animals” for short) in assay [1] (2.5 mg/kg of body weight) is 20%. `CCOC(=O)C1CCCCC1=Nc1c2c(nc3ccccc13)CCCC2` (stereo not drawn) [2-(1,2,3,4-Tetrahydro-9-acridinimino)cyclohexanecarboxylic acid ethyl ester] returned an IC50 in assay [2] of 15.2 µM. In addition, the “% of Animals” value in assay [1] (0.16 mg/kg of body weight) was 29%. With `O=C(O)C1CCCCC1=Nc1c2c(nc3ccccc13)CCCC2` (stereo not drawn) [2-(1,2,3,4-Tetrahydro-9-acridinimino)cyclohexanecarboxylic acid], the “% of Animals” value in assay [1] (0.63 mg/kg of body weight) is 53%. On the same count and under the same terms, the value for `O=C(OCc1ccccc1)C1=C(N(Cc2ccccc2)c2c3c(nc4ccccc24)CCCC3)CCCC1` [2-[N-(Phenylmethyl)-1,2,3,4-tetrahydro-9-acridinamino]-cyclohex-1-ene carboxylic acid phenylmethyl ester] was 29%. Regarding `CNC(=O)Oc1ccc2c(c1)[C@]1(C)CCN(C)[C@@H]1N2C` [Physostigmine, reference compound], the “% of Animals” value in assay [1] (0.31 mg/kg of body weight) worked out at 20%.
